# Where a name gives a salt, the structure may show the parent alone. Read-outs that look alike come from different tables or passages of the source.
# Columns and labels:
# Format in all cases: in vivo
# Acute toxicity in mice = details: mouse, in vivo, single dose
# Experimental: (§1) (a) Acute toxicity in mice
# (§2) Each compound was administered orally, intra-peritoneally, or intravenously as a single dose.
# mice = experiment: Acute toxicity in mice; details: single dose, behavior observed
# Experimental: as §1, §2
# [1] = tested on: maximum stimulation heart rate (FMS); experiment: Maximum stimulation heart rate (FMS) in rabbits
# Experimental: (§3) The anti-dysrhythmic activity of the compounds of the formula (I) was evaluated according to the following pharmacological tests:
# maximum stimulation heart rate (FMS)
# The FMS, as determined in vivo in rabbits by cardiac stimulation by means of a stimulation probe placed in the left auricular cavity, provides an overall determination of the duration of the refractory period of the conductive routes and of the fibres of the myocardium.
# [2] = tested on: dysrhythmia on central stimulation; experiment: Dysrhythmia on central stimulation in rabbits
# Experimental: The anti-dysrhythmic activity of the compounds of the formula (I) was evaluated according to the following pharmacological tests: […]
# [3] = tested on: anoxia induced dysrhythmias; experiment: Anoxia induced dysrhythmias in rats, after pre-treatment with a subliminal dosage of aconitine
# Experimental: as §3
# anoxia induced dysrhythmias in rats, after pre-treatment with a subliminal dosage of aconitine (combination of the effects of a sympathetic stimulation with those due to perturbations of ionic conductions);
# [4] = tested on: ouabaine induced dysrhythmias; experiment: Ouabaine induced dysrhythmias in guinea-pigs; details: 10-20 mg/kg i.v., guinea-pig
# Experimental: as §3
# ouabaine induced dysrhythmias in guinea-pigs: at toxic dosages, ouabaine affects transmembrane ionic exchanges; on the other hand, it induces a concomitant sympathetic activation.
# [5] = tested on: dysrhythmias induced by localized ischemia; experiment: Method according to Harris, in dogs (coronary ligation); details: 10 mg/kg i.v.
# Experimental: as §3
# method according to Harris, in dogs: coronary ligation and dysrhythmias induced by localized ischemia.
# [6] = tested on: aconitine induced dysrhythmias; experiment: Aconitine induced dysrhythmias in rats
# Experimental: as §3
# aconitine induced dysrhythmias in rats: this agent has a deeply perturbating effect on the ionic permeability of the membranes;
# [7] = ip, intra-peritoneal, read-out: LD50, i.p.
# [8] = intravenous, read-out: LD50, i.v.
SMILES,LD50 (Acute toxicity in mice; [7]),"LD50 (Acute toxicity in mice; oral, read-out: LD50, p.o.)",Remarks (acute toxicity) (mice),Anoxia Rat ([3]; 10 mg/kg i.v.),also measured
"CCN(CC)C1=NCC(c2cc3ccccc3o2)C1 (stereo not shown) [Example 5, 2-Diethylamino-4-(2-benzofuryl)Δ-1-pyrroline fumarate]",58 mg/kg,180 mg/kg,,,
"CN(C)C1=NCC(c2cc3ccccc3o2)C1 (stereo not shown) [Example 4, 2-Dimethylamino-4-(2-benzofuryl)Δ-1-pyrroline hydrochloride]",,240 mg/kg,convulsions,,LD50 (Acute toxicity in mice; [8]): 38.5 mg/kg; FMS Rabbit ([1]; 2.5 mg/kg i.v.): +; Central stimulation Rabbit ([2]; 5 mg/kg i.v.): ++; Anoxia Rat ([3]; 10-20 mg/kg i.v.): ++; Ouabaine Cobaye [4]: +; Harris Ligation Dog [5]: +
"CC(C)NC1=NCC(c2cc3ccccc3o2)C1 (stereo not shown) [Example 3, 2-Isopropylamino-4-(2-benzofuryl)Δ-1-pyrroline hydrochloride]",58 mg/kg,200 mg/kg,,+,
"CNC1=NCC(c2cc3ccccc3o2)C1 (stereo not shown) [Example 2, 2-Methylamino-4-(2-benzofuryl)Δ-1-pyrroline hydrochloride]",58 mg/kg,> 200 mg/kg,,,FMS Rabbit ([1]; 7.5 mg/kg i.v.): +; Central stimulation Rabbit ([2]; 3 mg/kg i.v.): +; Aconitine Rat ([6]; 10 mg/kg i.v.): +
"c1ccc(NC2=NCC(c3cc4ccccc4o3)C2)cc1 (stereo not shown) [Example 6, 2-Anilino-4-(2-benzofuryl)Δ-1-pyrroline hydrochloride]",58 mg/kg,110 mg/kg,Hyperesthesia,,"FMS Rabbit ([1]; 2.5 mg/kg i.v.): +; Central stimulation Rabbit ([2]; 2.5 mg/kg i.v.): +; Anoxia Rat ([3]; i.v., dose not given): 0"
"NC1=NCC(c2cc3ccccc3o2)C1 (stereo not shown) [Example 1, 2-Amino-4-(2-benzofuryl)Δ-1-pyrroline hydrochloride]",58 mg/kg,115 mg/kg,,,LD50 (Acute toxicity in mice; [8]): 46 mg/kg
"c1ccc2oc(C3CN=C(N4CCCC4)C3)cc2c1 (stereo not shown) [Example 8, 2-Pyrrolidino-4-(2-benzofuryl)Δ-1-pyrroline hydrochloride]",76 mg/kg,200 mg/kg,,+,Aconitine Rat ([6]; 10 mg/kg i.v.): +
"CN1CCN(C2=NCC(c3cc4ccccc4o3)C2)CC1 (stereo not shown) [Example 10, 2-(4-Methyl-piperazino)-4-(2-benzofuryl)Δ-1-pyrroline methanesulfonate]",142 mg/kg,> 200 mg/kg,,+,
"c1ccc2oc(C3CN=C(N4CCOCC4)C3)cc2c1 (stereo not shown) [Example 9, 2-Morpholino-4-(2-benzofuryl)Δ-1-pyrroline hydrochloride]",142 mg/kg,> 200 mg/kg,,,"Anoxia Rat ([3]; i.v., dose not given): 0"
"c1ccc(CCNC2=NCC(c3cc4ccccc4o3)C2)cc1 (stereo not shown) [Example 7, 2-Phenethylamino-4-(2-benzofuryl)Δ-1-pyrroline hydrochloride]",98 mg/kg,> 200 mg/kg,Convulsions,,"FMS Rabbit ([1]; 2 mg/kg i.v.): +; Central stimulation Rabbit ([2]; i.v., dose not given): 0; Aconitine Rat ([6]; 5 mg/kg i.v.): +"
